# Results: publication PMC6768983, “Transcriptomic Identification and Biochemical Characterization of HmpA, a Nitric Oxide Dioxygenase, Essential for Pathogenesis of Vibrio vulnificus” (Frontiers in Microbiology, 2019)
# Biological target: T1, VvHmpA (Vibrio vulnificus, UniProt Q8DCU2)
# T1 construct: gene hmp; reconstituted with heme or FAD
# Test: FAD fluorometric assay after reconstitution
# Format: binding
# Settings: 10 μM protein incubated with 80 μM FAD, 1 h, room temperature; stoichiometry, no affinity constant
# T1 sequence (Q8DCU2 whole entry): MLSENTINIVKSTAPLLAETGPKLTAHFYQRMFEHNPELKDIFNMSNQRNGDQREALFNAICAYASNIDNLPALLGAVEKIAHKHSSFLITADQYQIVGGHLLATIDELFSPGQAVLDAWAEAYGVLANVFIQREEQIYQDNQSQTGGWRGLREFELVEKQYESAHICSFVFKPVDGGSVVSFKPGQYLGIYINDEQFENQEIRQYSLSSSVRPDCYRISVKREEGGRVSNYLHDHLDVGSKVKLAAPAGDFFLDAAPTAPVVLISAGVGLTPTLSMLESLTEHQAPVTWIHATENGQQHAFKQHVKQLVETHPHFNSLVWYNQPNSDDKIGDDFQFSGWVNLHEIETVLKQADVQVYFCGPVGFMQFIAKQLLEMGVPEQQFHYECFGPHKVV
smiles,measurement,value
Cc1cc2nc3c(=O)[nH]c(=O)nc-3n(C[C@H](O)[C@H](O)[C@H](O)COP(=O)(O)OP(=O)(O)OC[C@H]3O[C@@H](n4cnc5c(N)ncnc54)[C@H](O)[C@@H]3O)c2cc1C [FAD],molecules of FAD per VvHmpA monomer,0.92 ± 0.12 molecules per monomer
